From patent publication US20090239894A1, “Stabilized aqueous solutions of ergoline compounds” (priority 2008, published 2009)
Where two headings read alike, the source gives them in different places.

Experiments:
[1] = Solubility in water / phosphate-buffered solution (pH 7.4)
[2] = cited from earlier work
[3] = Method: Solutions of lisuride hydrogen maleate with a concentration of 2 mg active ingredient per 3 mL solution were investigated with regard to their temperature-dependent stability. These solutions were buffered using a citrate buffer system, so that the pH value of the pure medium was adjusted to 5.1, 4.5 and 3.5. Aqueous solutions of citric acid monohydrate and trisodium citrate dihydrate (0.53 mM each) were prepared.
Suitable mixing of these solutions yielded aqueous buffer systems with a pH of 4.5 and/or 3.5. After 33.3 mg lisuride hydrogen maleate had been weighed out in a scaled 50 mL flask, 40 mL of the corresponding buffer medium was added. The flasks were agitated for several minutes and then exposed to ultrasound for several minutes until the active ingredient was completely dissolved. The solutions were cooled to room temperature and topped off to the mark with buffer medium.
In the case of the more strongly basic medium (pH 5.1), a supply solution was prepared, containing citric acid monohydrate (0.38 mM) and trisodium citrate dihydrate (0.68 mM). This was used to dissolve the active ingredient. In principle, double-distilled water was used to prepare the solutions.
The resulting solutions were stored under three different conditions: under refrigeration at 6 to 8° C., at room temperature (25° C.) and at an elevated temperature of 40° C. The solutions were stored in sealed glass ampoules which were wrapped with aluminum foil for protection from light. After suitable intervals of time, samples were analyzed by means of a specific reverse phase HPLC method with UV detection (running time 30 min, retention time of lisuride ˜13 min).

[4] = propylene glycol as low-dose additive (less than 10%)
[5] = 9% propylene glycol; for Average area (percent of lisuride peak area relative to total peak area): no buffer
Method: An aqueous solution of lisuride hydrogen maleate which additionally contained 9% propylene glycol was investigated. The active ingredient concentration was adjusted to 2 mg per 3 mL. No buffer system was added. The remaining procedure included weighing 33.3 mg of the active ingredient into a scaled 50 mL flask, then adding the propylene glycol (4.5 g) and also adding 40 mL water. The flask was agitated for several minutes and then exposed to ultrasound until the active ingredient was completely dissolved. The flask was cooled to room temperature and topped off with double-distilled water up to the mark.
The solution was poured into transparent glass ampoules with a volume of 1 mL. These ampoules were sealed airtight and wrapped with aluminum foil to protect them from light. The ampoules were each stored at 6-8° C., 25° C. and 40° C.

[6] = 60° C., one week, dark
Method: The additives used were propylene glycol and Cremophor ELP in concentrations between 1.00% and 10.00%.
The solutions were prepared by analogy with the procedure used in examples 1 and 2.
The solutions were stored in the dark in glass containers at 60° C. for one week.

In the case of `CCN(CC)C(=O)N[C@H]1C=C2c3cccc4[nH]cc(c34)C[C@H]2N(C)C1` [lisuride], the “solubility (estimated)” value ([1]; free lisuride, calculated from solubility data of active ingredients/salts (Zimmermann 1983)) is reported as about 2.2 mg/100 mL.
In the case of `CC(O)CO` (centres unmarked) [propylene glycol, 1,2-propanediol (propylene glycol)], the “estimated amount acceptable as a daily oral dose” value [2] is listed as 25 mg/kg body weight.
In the case of `CCCN1C[C@@H](NC(=O)N(CC)CC)C[C@@H]2c3cccc4[nH]cc(c34)C[C@H]21` [proterguride], the solubility ([1]; free compound, phosphate-buffered solution (pH 7.4)) is reported as 2.6 mg/100 mL and the “solubility in water relative to lisuride” value ([1]; water) is reported as “comparable to that of lisuride”.
In the case of `CCN(CC)C(=O)N[C@H]1C=C2c3cccc4[nH]cc(c34)C[C@H]2N(C)C1.O=C(O)/C=C\C(=O)O` [lisuride hydrogen maleate], the “Average area (percent of lisuride peak area relative to total peak area)” value ([3]; citrate buffer pH 3.5, 6-8° C., t 0 d) is reported as 99.87%, the “Average area (percent of lisuride peak area relative to total peak area)” value ([3]; citrate buffer pH 3.5, 6-8° C., t 7 d) is reported as 99.92% and the “Average area (percent of lisuride peak area relative to total peak area)” value ([3]; citrate buffer pH 3.5, 6-8° C., t 30 d) is reported as 99.80%. For the same compound, the “Average area (percent of lisuride peak area relative to total peak area)” value ([3]; citrate buffer pH 3.5, 6-8° C., t 90 d) was 99.57%, the “Average area (percent of lisuride peak area relative to total peak area)” value ([3]; citrate buffer pH 3.5, 6-8° C., t 180 d) was 99.22% and the “Average area (percent of lisuride peak area relative to total peak area)” value ([3]; citrate buffer pH 3.5, 25° C., t 0 d) was 99.87%. The “Average area (percent of lisuride peak area relative to total peak area)” value ([3]; citrate buffer pH 3.5, 25° C., t 7 d) was 99.89%, the “Average area (percent of lisuride peak area relative to total peak area)” value ([3]; citrate buffer pH 3.5, 25° C., t 30 d) was 99.37% and the “Average area (percent of lisuride peak area relative to total peak area)” value ([3]; citrate buffer pH 3.5, 25° C., t 90 d) was 98.70%. The “Average area (percent of lisuride peak area relative to total peak area)” value ([3]; citrate buffer pH 3.5, 25° C., t 180 d) was 94.14%, the “Average area (percent of lisuride peak area relative to total peak area)” value ([3]; citrate buffer pH 3.5, 40° C., t 0 d) was 99.87% and the “Average area (percent of lisuride peak area relative to total peak area)” value ([3]; citrate buffer pH 3.5, 40° C., t 7 d) was 98.89%. The “Average area (percent of lisuride peak area relative to total peak area)” value ([3]; citrate buffer pH 3.5, 40° C., t 30 d) was 90.41%, the “Average area (percent of lisuride peak area relative to total peak area)” value ([3]; citrate buffer pH 3.5, 40° C., t 90 d) was 73.37% and the “Average area (percent of lisuride peak area relative to total peak area)” value ([3]; citrate buffer pH 3.5, 40° C., t 180 d) was 69.91%. The “Average area (percent of lisuride peak area relative to total peak area)” value ([3]; citrate buffer pH 4.5, 6-8° C., t 0 d) was 99.79%, the “Average area (percent of lisuride peak area relative to total peak area)” value ([3]; citrate buffer pH 4.5, 6-8° C., t 7 d) was 99.88% and the “Average area (percent of lisuride peak area relative to total peak area)” value ([3]; citrate buffer pH 4.5, 6-8° C., t 30 d) was 99.73%. The “Average area (percent of lisuride peak area relative to total peak area)” value ([3]; citrate buffer pH 4.5, 6-8° C., t 90 d) was 99.75%, the “Average area (percent of lisuride peak area relative to total peak area)” value ([3]; citrate buffer pH 4.5, 6-8° C., t 180 d) was 99.11% and the “Average area (percent of lisuride peak area relative to total peak area)” value ([3]; citrate buffer pH 4.5, 25° C., t 0 d) was 99.79%. The “Average area (percent of lisuride peak area relative to total peak area)” value ([3]; citrate buffer pH 4.5, 25° C., t 7 d) was 99.84%, the “Average area (percent of lisuride peak area relative to total peak area)” value ([3]; citrate buffer pH 4.5, 25° C., t 30 d) was 99.26% and the “Average area (percent of lisuride peak area relative to total peak area)” value ([3]; citrate buffer pH 4.5, 25° C., t 90 d) was 98.14%. The “Average area (percent of lisuride peak area relative to total peak area)” value ([3]; citrate buffer pH 4.5, 25° C., t 180 d) was 95.90%, the “Average area (percent of lisuride peak area relative to total peak area)” value ([3]; citrate buffer pH 4.5, 40° C., t 0 d) was 99.79% and the “Average area (percent of lisuride peak area relative to total peak area)” value ([3]; citrate buffer pH 4.5, 40° C., t 7 d) was 98.82%. For the same compound, the “Average area (percent of lisuride peak area relative to total peak area)” value ([3]; citrate buffer pH 4.5, 40° C., t 30 d) was 94.96%, the “Average area (percent of lisuride peak area relative to total peak area)” value ([3]; citrate buffer pH 4.5, 40° C., t 90 d) was 90.39% and the “Average area (percent of lisuride peak area relative to total peak area)” value ([3]; citrate buffer pH 4.5, 40° C., t 180 d) was 87.71%. The “Average area (percent of lisuride peak area relative to total peak area)” value ([3]; citrate buffer pH 5.1, 6-8° C., t 0 d) was 100.00%, the “Average area (percent of lisuride peak area relative to total peak area)” value ([3]; citrate buffer pH 5.1, 6-8° C., t 7 d) was 99.90% and the “Average area (percent of lisuride peak area relative to total peak area)” value ([3]; citrate buffer pH 5.1, 6-8° C., t 30 d) was 99.72%. The “Average area (percent of lisuride peak area relative to total peak area)” value ([3]; citrate buffer pH 5.1, 6-8° C., t 90 d) was 99.59%, the “Average area (percent of lisuride peak area relative to total peak area)” value ([3]; citrate buffer pH 5.1, 6-8° C., t 180 d) was 99.29% and the “Average area (percent of lisuride peak area relative to total peak area)” value ([3]; citrate buffer pH 5.1, 25° C., t 0 d) was 100.00%. The “Average area (percent of lisuride peak area relative to total peak area)” value ([3]; citrate buffer pH 5.1, 25° C., t 7 d) was 99.79%, the “Average area (percent of lisuride peak area relative to total peak area)” value ([3]; citrate buffer pH 5.1, 25° C., t 30 d) was 99.36% and the “Average area (percent of lisuride peak area relative to total peak area)” value ([3]; citrate buffer pH 5.1, 25° C., t 90 d) was 98.64%. The “Average area (percent of lisuride peak area relative to total peak area)” value ([3]; citrate buffer pH 5.1, 25° C., t 180 d) was 95.45%, the “Average area (percent of lisuride peak area relative to total peak area)” value ([3]; citrate buffer pH 5.1, 40° C., t 0 d) was 100.00% and the “Average area (percent of lisuride peak area relative to total peak area)” value ([3]; citrate buffer pH 5.1, 40° C., t 7 d) was 98.86%. For the same compound, the “Average area (percent of lisuride peak area relative to total peak area)” value ([3]; citrate buffer pH 5.1, 40° C., t 30 d) was 94.71%, the “Average area (percent of lisuride peak area relative to total peak area)” value ([3]; citrate buffer pH 5.1, 40° C., t 90 d) was 90.99% and the “Average area (percent of lisuride peak area relative to total peak area)” value ([3]; citrate buffer pH 5.1, 40° C., t 180 d) was 87.98%. The “decomposition of the active ingredient” value ([3]; citrate-buffered (pH 5.1, 4.5, 3.5), room temperature, within 180 days) was 5%, the “decomposition of the active ingredient” value ([3]; citrate-buffered, storage at 40° C.) was “up to 30%” and the “decomposition of the active ingredient” value ([3]; citrate-buffered, storage under refrigeration) was “approximately 0.7%”. The “discoloration of the solutions” value ([3]; citrate-buffered, stored at 40° C.) was “significant yellow discoloration after only 30 days, turning brown after another 60 days”, the “solubility of the active ingredient with propylene glycol” value [4] was “improved solubility” and the “discoloration of the solutions” value ([5]; elevated temperature) was “slight yellow discoloration was observed only after a storage time of 90 days”. The “Average area (percent of lisuride peak area relative to total peak area)” value ([5]; 6-8° C., t 0 d) was 99.80%, the “Average area (percent of lisuride peak area relative to total peak area)” value ([5]; 6-8° C., t 7 d) was 99.79% and the “Average area (percent of lisuride peak area relative to total peak area)” value ([5]; 6-8° C., t 30 d) was 99.67%. For the same compound, the “Average area (percent of lisuride peak area relative to total peak area)” value ([5]; 6-8° C., t 90 d) was 99.52%, the “Average area (percent of lisuride peak area relative to total peak area)” value ([5]; 6-8° C., t 180 d) was 99.36% and the “Average area (percent of lisuride peak area relative to total peak area)” value ([5]; 25° C., t 0 d) was 99.80%. For the same compound, the “Average area (percent of lisuride peak area relative to total peak area)” value ([5]; 25° C., t 7 d) was 99.79%, the “Average area (percent of lisuride peak area relative to total peak area)” value ([5]; 25° C., t 30 d) was 99.46% and the “Average area (percent of lisuride peak area relative to total peak area)” value ([5]; 25° C., t 90 d) was 99.15%. For the same compound, the “Average area (percent of lisuride peak area relative to total peak area)” value ([5]; 25° C., t 180 d) was 98.35%, the “Average area (percent of lisuride peak area relative to total peak area)” value ([5]; 40° C., t 0 d) was 99.80% and the “Average area (percent of lisuride peak area relative to total peak area)” value ([5]; 40° C., t 7 d) was 99.33%. The “Average area (percent of lisuride peak area relative to total peak area)” value ([5]; 40° C., t 30 d) was 97.59%, the “Average area (percent of lisuride peak area relative to total peak area)” value ([5]; 40° C., t 90 d) was 94.06% and the “Average area (percent of lisuride peak area relative to total peak area)” value ([5]; 40° C., t 180 d) was 89.76%. For the same compound, the active ingredient decomposed ([5]; refrigeration, 180 days) was “approximately 0.4%”, the “remaining active ingredient content in comparison with the initial concentration” value ([5]; room temperature, 180 days) was 98.4% and the active ingredient decomposed ([5]; storage at 40° C.) was “approximately 10%”. For the same compound, the “stability compared with solutions without propylene glycol (Example 1)” value ([5]; 6-8° C., 25° C. and 40° C.) was “significantly more stable”, the “degradation of the active ingredient” value ([6]; 1% Cremophor ELP) was 14.3% and the “degradation of the active ingredient” value ([6]; 10% Cremophor ELP) was 21.3%. The “remaining active ingredient content” value ([6]; propylene glycol) was 92.5%.
